US4333941A, “Inhibition of enveloped viruses with phenyl ketones” (The Dow Chemical Company, priority 1977, dated 1982)
Counter-ions that a name gives are not always drawn. Like-named read-outs stand apart in the source and are kept apart here.

Assays:
HSV-1 [1] = experiment: Inactivation of HSV-1, plaque assay on Vero or HeLa cells (Example 1); type: cell-based, herpes simplex virus type I; conditions: Human alphaherpesvirus 1, 1 h, one hour at 37° C., versus water control, read-out: Concentration Producing 50% Virus Inhibition
[2] = test system: VSV (vesicular stomatitis virus); experiment: microbe, parasite or virus in culture; type: cell-based; conditions: 1 h
rhinovirus = experiment: Inactivation of rhinovirus (Example 2); type: cell-based
HSV-2 [3] = experiment: In vivo treatment of genital cutaneous mucosa infected with HSV-2 (Example 8); conditions: all the animals, including placebo and control
vaccinia virus = experiment: microbe, parasite or virus in culture; type: cell-based; conditions: Orthopoxvirus vaccinia, 1 h, read-out: concentration for 50 percent inactivation
HSV-2 [4] = conditions: guinea pig, in vivo
mice = conditions: cited from earlier work
HSV-1 [5] = conditions: guinea pig, in vivo
HSV-1, Stohr strain = experiment: In vivo treatment of HSV-1 skin infection in guinea pigs (Example 5); conditions: 2 percent in 5 percent ethanol, topical hourly
[6] = test system: NDV (Newcastle's disease virus); experiment: organism not typed; type: cell-based; conditions: 1 h, read-out: concentration for fifty percent inactivation
[7] = test system: SFV (semliki forest virus); experiment: Inactivation of SFV (Example 2); type: cell-based; conditions: 1 h, one hour exposure, read-out: concentration for fifty percent inactivation
HSV-1 [8] = experiment: Inactivation of two strains of HSV-1 (Example 3); conditions: Human alphaherpesvirus 1, 1 h, read-out: concentration for ninety nine percent inactivation
poliovirus = type: cell-based; conditions: poliovirus (picorna viruses)
HSV-2 [9] = experiment: Inactivation of one strain of HSV-2 (Example 3); conditions: Human alphaherpesvirus 2, 1 h, read-out: concentration for ninety nine percent inactivation
HSV-1 [10] = experiment: Inactivation of HSV-1 (Example 2); type: cell-based, herpes simplex virus type I; conditions: Human alphaherpesvirus 1, 1 h
influenza = experiment: Inactivation of influenza virus (Example 2); type: cell-based; conditions: unidentified influenza virus, 1 h
[11] = read-out: concentration for fifty percent inactivation

SMILES: CCCOc1ccc(C(=O)CCN2CCCCC2)cc1 [4'-Propoxy-3-piperidino-propiophenone . HCl]
- IC50 (HSV-1 [1]): 400 µM

SMILES: CCCCCCOc1ccc(C(=O)CCN2CCCCC2)cc1 [4'-Hexyloxy-3-piperidino-propiophenone . HCl]
- IC50 (HSV-1 [1]): < 125 µM

SMILES: CCCCOc1ccc(C(=O)CC[N+]2(C)CCCCC2)cc1 [1-[2-(4-butoxybenzoyl)-ethyl]-1-methyl piperidinium iodide]
- IC50 (HSV-1 [1]): < 125 µM

SMILES: CC(C)COc1ccc(C(=O)CCN2CCCCC2)cc1 [4'-Isobutoxy-3-piperidino-propiophenone . HCl]
- IC50 (HSV-1 [1]): 200 µM

SMILES: CC(=O)C(CN1CCCCC1)c1ccccc1 (stereo not drawn) [3-Phenyl-4-piperidino-2-butanone . HCl]
- IC50 (HSV-1 [1]): 550 µM

SMILES: CCCOc1ccc(C(=O)OCCN(CC)CC)cc1N [proparacaine . HCl]
- IC50 (HSV-1 [1]): > 2000 µM

SMILES: CCOC(=O)c1ccc(N)cc1 [benzocaine]
- IC50 (HSV-1 [1]): > 2000 µM

SMILES: CCN(CC)CC(=O)Nc1c(C)cccc1C [lidocaine . HCl]
- IC50 (HSV-1 [1]): > 2000 µM

SMILES: CCCCOc1ccc(C(=O)CCN2CCOCC2)cc1
- IC50 (HSV-1 [1]): 125 µM

SMILES: CCCCOc1ccc(C(=O)CCN(CC)CC)cc1 [4'-Butoxy-3-diethylamino-propiophenone . HCl]
- IC50 (HSV-1 [1]): < 125 µM

SMILES: CCCCOc1ccc(OCCCN2CCOCC2)cc1 [pramoxine . HCl]
- IC50 (HSV-1 [1]): 675 µM

SMILES: O=C(CCN1CCCCC1)c1cccc(Cl)c1 [3'-Chloro-3-piperidino-propiophenone . HCl]
- IC50 (HSV-1 [1]): 125 µM

SMILES: O=C(CCN1CCCCC1)c1ccc(Cl)c(Cl)c1 [3',4'-Dichloro-3-piperidino-propiophenone . HCl]
- IC50 (HSV-1 [1]): < 125 µM

SMILES: CCOc1ccc(C(=O)CCN2CCCCC2)cc1 [4'-Ethoxy-3-piperidino-propiophenone . HCl]
- IC50 (HSV-1 [1]): 1500 µM

SMILES: CCCCOc1ccc(C(=O)CCN2CCCCC2)cc1 [Dyclonine . HCl, 4-n-butoxy-β-(1-piperidyl)-propiophenone hydrochloride]
- IC50 [2, 11]: ≤ 1 mM
- killing at 500 µM ([2]; read-out: inactivation of VSV): > 99%
- IC50 (HSV-1 [1]): 125 µM
- percent inactivated (rhinovirus): less than 50%
- hyperkeratosis (HSV-2 [3]): hyperkeratosis was noted in all the animals
- IC50 (vaccinia virus): ≤ 2 mM
- detrimental adverse reactions (HSV-2 [4]): No detrimental adverse reactions were observed
- hyperkeratosis (HSV-2 [4]): mild hyperkeratosis noted in some of the animals
- acute LD50 (mice; intraperitoneal injection): 52.8 mg/kg
- acute LD50 (mice; intravenous): 19.5 mg/kg
- Candida (yeast) infection (HSV-1 [5]): a Candida (yeast) infection developed
- sites with herpes lesions (HSV-1, Stohr strain; 48 hours after inoculation, placebo 88 percent): 31% of the sites
- sites with herpes lesions (HSV-1, Stohr strain; by 72 hours): 7% of the sites
- IC50 [6]: ≤ 1 mM
- IC50 [7]: ≤ 1 mM
- IC99 (HSV-1 [8]): < 1000 µM
- percent inactivated (poliovirus): less than 50%
- IC99 (HSV-2 [9]): < 1000 µM
- IC50 (HSV-1 [10]; [11]): ≤ 1 mM
- killing at 500 µM (HSV-1 [10]; read-out: inactivation of HSV): > 90%
- IC50 (influenza; [11]): ≤ 1 mM
- killing at 500 µM (influenza; read-out: inactivation of influenza virus): ~80%

SMILES: CCN(CC)CCOC(=O)c1ccc(N)cc1 [procaine . HCl]
- IC50 (HSV-1 [1]): > 2000 µM

SMILES: CCCCOc1cc(C(=O)OCCN(CC)CC)ccc1N [benoxinate . HCl]
- IC50 (HSV-1 [1]): > 2000 µM

SMILES: CCCCCCCCOc1ccc(C(=O)CCN2CCCCC2)cc1 [4'-n-Octyloxy-3-piperidino-propiophenone . HCl]
- IC50 (HSV-1 [1]): < 125 µM

SMILES: CCOc1ccc(N=C(C)Nc2ccc(OCC)cc2)cc1 [phenacaine . HCl]
- IC50 (HSV-1 [1]): > 2000 µM

SMILES: COc1ccc(C(=O)CCN2CCCCC2)cc1 [4-Methoxy-3-piperidino propiophenone . HCl]
- IC50 (HSV-1 [1]): 125 µM

SMILES: CCCCOc1cc(C(=O)NCCN(CC)CC)c2ccccc2n1 [dibucaine . HCl]
- IC50 (HSV-1 [1]): 800 µM

SMILES: CCCCCCCCCCOc1ccc(C(=O)CCN2CCCCC2)cc1 [4'-n-Decyloxy-3-piperidino-propiophenone . HCl]
- IC50 (HSV-1 [1]): < 125 µM

SMILES: CCCCNc1ccc(C(=O)OCCN(C)C)cc1 [tetracaine . HCl]
- IC50 (HSV-1 [1]): > 2000 µM

SMILES: CCCCOc1ccc(C(=O)C(C)C[N+]2(C)CCCCC2)cc1 (stereo not drawn) [1-[2-(4-butoxybenzoyl)-2-methylethyl]-1-methyl-piperidinium iodide]
- IC50 (HSV-1 [1]): > 750 µM
